Test results reported in BindingDB's records for doi:10.1021/bi00246a005 (Texas A&M University, 1991).

Biological target: T1, Carbamoyl-phosphate synthase small chain (Escherichia coli (strain K12), UniProt P0A6F1)
T1 sequence (P0A6F1 whole entry): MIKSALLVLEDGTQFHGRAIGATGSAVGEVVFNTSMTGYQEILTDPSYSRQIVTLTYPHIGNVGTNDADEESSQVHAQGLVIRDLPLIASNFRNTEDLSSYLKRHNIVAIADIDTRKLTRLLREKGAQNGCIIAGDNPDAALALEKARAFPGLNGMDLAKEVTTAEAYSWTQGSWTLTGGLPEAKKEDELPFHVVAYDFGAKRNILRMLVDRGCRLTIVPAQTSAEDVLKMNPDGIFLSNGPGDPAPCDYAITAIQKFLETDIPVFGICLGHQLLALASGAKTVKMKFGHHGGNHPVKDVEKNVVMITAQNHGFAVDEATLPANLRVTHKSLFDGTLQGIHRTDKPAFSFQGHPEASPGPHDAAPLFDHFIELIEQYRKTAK
Test: Enzyme Assay
Settings: pH 7.5
Protocol: The rate of carbamoyl phosphate synthesis was determined by use of a coupled enzyme assay with ornithine transcarbamoylase.

SMILES	Ki [µM]
NC(=O)CCC(N)C(=O)O (stereo not given) [Glutamine Analogue, 1]	54
NNC(=O)CCC(N)C(=O)O (stereo not given) [Glutamine Analogue, 3]	340
NC(CCC(=O)NO)C(=O)O (stereo not given) [Glutamine Analogue, 2]	9

Results, then the compound that gave them:

Ki [µM]	SMILES
28000	NC(CCC(=O)O)C(=O)O (stereo not given) [Glutamine Analogue, 4]
25000	COC(=O)CCC(N)C(=O)O (stereo not given) [Glutamine Analogue, 5]
